Results: patent publication US20250276983A1, “COMPOUNDS AND METHODS FOR MODULATING HER2” (IAMBIC THERAPEUTICS, INC., priority 2022, published 2025)

What was measured:
[1] = system: BaF3_EGFRWT cells; experiment: Cell growth inhibition assay, BaF3_EGFRWT; type: cell-based; conditions: 72 h, 80 ng/mL recombinant human EGF, 3 days treatment, CellTiterGlo 2.0, read-out: EGFR WT IC50 (nM), cell growth inhibition
[2] = molecular target: wtEGFR (Homo sapiens (Human), UniProt P00533); experiment: HotSpot radiometric kinase activity assay, wtEGFR; type: biochemical; conditions: 4 nM wtEGFR, 10 μM 33P-ATP, 20 min preincubation, 2 hours, read-out: EGFR WT IC50
Description: (§1) The purpose of the wtERBB2, ERBB2-A775_G776insYVMA (ERBB2YVMA), wtEGFR biochemical assay was to evaluate the inhibition (% inhibition and IC50 values) of the small molecule inhibitors by using the “HotSpot” radiometric kinase activity assay. HotSpot assays monitor the […] of kinase substrate by the radioactive gamma phosphate of adenosine triphosphate (33P-ATP) during biochemical reactions. HotSpot assays was performed in steps upon completion of the kinase reaction: deposition of a reaction mixture aliquot onto P81 ion exchange paper, extensive washing of the aforementioned P81 paper using phosphoric acid to remove unbound radiolabeled 33P-ATP from the P81 paper, and finally visualization and quantification of the dried P81 paper utilizing a phosphoimager. […] Typical reaction solutions (10 μL final reaction volume) contained the following buffer conditions: 20 mM Hepes (pH 7.5), 10 mM MgCl2, 1 mM EGTA, 0.01% Brij35, 0.02 mg/mL BSA, 0.1 mM Na3VO4, 2 mM DTT, 1% DMSO. The assay was primed by preparing a fresh 0.2 mg/mL solution of pEY (Sigma Cat: P7244) substrate in the reaction buffer and supplementing that solution with […] of MnCl2 as substrate cofactor (Sigma Cat: M9522). The kinase of interest was then added to the solution at the appropriate concentration (30 nM wtERBB2 from, or 20 nM ERBB2YVMA, or 4 nM wtEGFR) and gently mixed prior to delivery of compound in 100% DMSO by acoustic dispensing (Beckman Echo550). Compound, Kinase, and substrate were allowed to incubate for 20 min at room temperature prior to the initiation of the reaction by addition of 33P-ATP (PerkinElmer Cat: NEG602, final conc 10 μM). […] IC50 determinations were made from a plot of kinase activity as a function of inhibitor concentration fit to the 4-parameter IC50 equation with the enzyme concentration held constant using GraphPad Prism (San Diego).

[3] = molecular target: wtERBB2 (Homo sapiens (Human), UniProt P04626); experiment: HotSpot radiometric kinase activity assay, wtERBB2; type: biochemical; conditions: 30 nM wtERBB2, 10 μM 33P-ATP, 20 min preincubation, 2 hours, read-out: HER2 WT IC50
Description: as §1

[4] = system: BaF3_HER2YVMA cells; experiment: Cell growth inhibition assay, BaF3_HER2YVMA; type: cell-based; conditions: 72 h, BaF3_HER2YVMA cells, 3 days treatment, CellTiterGlo 2.0; read-out: HER2-YVMA IC50 (nM), cell growth inhibition
[5] = system: BaF3_HER2WT cells; experiment: Cell growth inhibition assay, BaF3_HER2WT; type: cell-based; conditions: 72 h, 3 days treatment, CellTiterGlo 2.0, read-out: HER2 WT IC50 (nM), cell growth inhibition

Sequence of wtERBB2 (P04626 23-1255): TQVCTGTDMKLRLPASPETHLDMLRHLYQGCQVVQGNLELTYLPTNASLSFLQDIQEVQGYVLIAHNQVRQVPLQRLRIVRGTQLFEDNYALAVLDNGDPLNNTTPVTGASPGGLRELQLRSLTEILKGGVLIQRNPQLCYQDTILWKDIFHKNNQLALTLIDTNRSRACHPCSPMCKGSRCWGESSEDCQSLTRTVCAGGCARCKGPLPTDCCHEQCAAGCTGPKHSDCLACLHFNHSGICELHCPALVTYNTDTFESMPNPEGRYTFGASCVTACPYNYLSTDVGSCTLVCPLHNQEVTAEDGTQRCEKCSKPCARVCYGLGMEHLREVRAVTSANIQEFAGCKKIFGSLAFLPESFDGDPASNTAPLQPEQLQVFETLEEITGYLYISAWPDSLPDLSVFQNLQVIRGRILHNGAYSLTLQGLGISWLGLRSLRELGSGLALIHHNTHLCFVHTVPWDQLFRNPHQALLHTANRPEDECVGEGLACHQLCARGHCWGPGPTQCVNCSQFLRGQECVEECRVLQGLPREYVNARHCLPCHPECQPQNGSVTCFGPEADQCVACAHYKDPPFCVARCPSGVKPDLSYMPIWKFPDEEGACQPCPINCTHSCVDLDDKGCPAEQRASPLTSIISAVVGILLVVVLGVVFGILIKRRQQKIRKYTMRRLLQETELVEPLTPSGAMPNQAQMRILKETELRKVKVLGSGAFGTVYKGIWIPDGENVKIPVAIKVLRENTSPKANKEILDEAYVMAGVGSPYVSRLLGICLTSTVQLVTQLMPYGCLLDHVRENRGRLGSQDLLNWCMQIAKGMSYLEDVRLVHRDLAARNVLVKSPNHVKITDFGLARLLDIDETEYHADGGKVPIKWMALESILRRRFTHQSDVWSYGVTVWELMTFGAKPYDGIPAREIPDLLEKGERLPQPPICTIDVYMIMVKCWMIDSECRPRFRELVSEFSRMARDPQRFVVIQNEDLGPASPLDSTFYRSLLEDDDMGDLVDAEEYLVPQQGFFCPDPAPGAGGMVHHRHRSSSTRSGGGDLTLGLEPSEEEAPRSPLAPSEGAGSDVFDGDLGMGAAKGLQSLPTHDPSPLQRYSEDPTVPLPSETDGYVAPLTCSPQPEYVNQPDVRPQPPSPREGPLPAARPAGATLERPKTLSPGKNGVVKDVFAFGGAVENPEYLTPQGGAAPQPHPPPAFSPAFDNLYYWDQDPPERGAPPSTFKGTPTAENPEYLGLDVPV
Sequence of wtEGFR (P00533 25-1210): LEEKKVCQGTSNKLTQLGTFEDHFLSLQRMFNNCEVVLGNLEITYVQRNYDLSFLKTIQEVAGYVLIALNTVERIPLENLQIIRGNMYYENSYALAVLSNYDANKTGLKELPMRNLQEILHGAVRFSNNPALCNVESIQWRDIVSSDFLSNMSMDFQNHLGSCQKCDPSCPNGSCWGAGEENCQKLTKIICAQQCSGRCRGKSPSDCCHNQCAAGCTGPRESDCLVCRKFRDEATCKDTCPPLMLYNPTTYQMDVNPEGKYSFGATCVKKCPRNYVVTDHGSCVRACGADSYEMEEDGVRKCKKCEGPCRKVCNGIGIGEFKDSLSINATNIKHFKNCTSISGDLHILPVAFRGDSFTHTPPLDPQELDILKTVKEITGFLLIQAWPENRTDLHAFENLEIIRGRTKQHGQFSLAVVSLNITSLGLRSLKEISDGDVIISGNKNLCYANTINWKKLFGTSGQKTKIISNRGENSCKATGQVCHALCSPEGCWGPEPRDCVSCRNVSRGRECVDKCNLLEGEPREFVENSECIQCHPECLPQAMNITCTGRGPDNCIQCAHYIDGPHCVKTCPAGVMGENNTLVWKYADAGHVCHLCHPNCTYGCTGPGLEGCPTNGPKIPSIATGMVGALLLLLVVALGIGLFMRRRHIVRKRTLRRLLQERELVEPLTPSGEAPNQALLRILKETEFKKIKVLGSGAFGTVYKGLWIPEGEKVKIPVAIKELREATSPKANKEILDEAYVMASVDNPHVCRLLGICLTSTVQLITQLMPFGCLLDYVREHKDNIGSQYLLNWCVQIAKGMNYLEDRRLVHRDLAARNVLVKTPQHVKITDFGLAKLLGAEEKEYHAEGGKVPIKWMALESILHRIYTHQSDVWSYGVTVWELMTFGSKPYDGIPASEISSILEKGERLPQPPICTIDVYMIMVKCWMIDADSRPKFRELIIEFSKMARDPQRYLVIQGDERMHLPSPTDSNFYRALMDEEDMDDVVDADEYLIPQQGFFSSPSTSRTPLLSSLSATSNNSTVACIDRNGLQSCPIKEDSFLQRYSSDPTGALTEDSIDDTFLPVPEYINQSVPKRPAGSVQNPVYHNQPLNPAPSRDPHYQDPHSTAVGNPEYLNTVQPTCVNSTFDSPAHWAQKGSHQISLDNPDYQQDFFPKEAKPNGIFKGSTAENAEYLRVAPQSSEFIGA

SMILES	IC50 [1] [nM]	IC50 [2] [nM]	IC50 [3] [nM]	IC50 [4] [nM]	IC50 [5] [nM]
COC1CCN(C/C=C/C(=O)N2CCC(c3ccn4ncnc(Nc5ccc(Oc6ccc7c(c6)ncn7C)c(C)c5)c34)CC2)C1 (racemic) [Example 106, (E)-4-(3-methoxypyrrolidin-1-yl)-1-(4-(4-((3-methyl-4-((1-methyl-1H-benzo[d]imidazol-5-yl)oxy)phenyl)amino)pyrrolo[2,1-f][1,2,4]triazin-5-yl)piperidin-1-yl)but-2-en-1-one]	1500 to 5000	< 200	–	–	–
Cc1cc(Nc2ncnn3ccc(-c4cnn(CCNC(=O)/C=C/CN(C)C)c4)c23)ccc1Oc1ccn2ncnc2c1 [Example 103, (E)-N-(2-(4-(4-((4-([1,2,4]triazolo[1,5-a]pyridin-7-yloxy)-3-methylphenyl)amino)pyrrolo[2,1-f][1,2,4]triazin-5-yl)-1H-pyrazol-1-yl)ethyl)-4-(dimethylamino)but-2-enamide]	1500 to 5000	–	< 200	1500 to 5000	1500 to 5000
C=CC(=O)N1CC2(C1)CN(c1ccn3ncnc(Nc4ccc(Oc5ccn6ncnc6c5)c(C)c4)c13)C2 [Example 16, 1-(6-(4-((4-([1,2,4]triazolo[1,5-a]pyridin-7-yloxy)-3-methylphenyl)amino)pyrrolo[2,1-f][1,2,4]triazin-5-yl)-2,6-diazaspiro[3.3]heptan-2-yl)prop-2-en-1-one]	1500 to 5000	–	< 200	500 to 1500	200 to 500
Cc1cc(Nc2ncnn3ccc([C@@H]4CCN(C(=O)/C=C/CN(C)C)C4)c23)ccc1Oc1ccn2ncnc2c1 (single isomer, unassigned) [Example 99]	–	< 200	< 200	–	–
Cc1cc(Nc2ncnn3ccc(C4CN(C(=O)/C=C/CN5CCC5)C4)c23)ccc1Oc1ccn2ncnc2c1 [Example 102, (E)-1-(3-(4-((4-([1,2,4]triazolo[1,5-a]pyridin-7-yloxy)-3-methylphenyl)amino)pyrrolo[2,1-f][1,2,4]triazin-5-yl)azetidin-1-yl)-4-(azetidin-1-yl)but-2-en-1-one]	1500 to 5000	–	< 200	1500 to 5000	500 to 1500
C=C(F)C(=O)N1CC(n2cc(-c3ccn4ncnc(Nc5ccc(Oc6ccn7ncnc7c6)c(C)c5)c34)cn2)C1 [Example 19, 1-(3-(4-(4-((4-([1,2,4]triazolo[1,5-a]pyridin-7-yloxy)-3-methylphenyl)amino)pyrrolo[2,1-f][1,2,4]triazin-5-yl)-1H-pyrazol-1-yl)azetidin-1-yl)-2-fluoroprop-2-en-1-one]	1500 to 5000	–	< 200	500 to 1500	200 to 500
Cc1cc(Nc2ncnn3ccc(C4CC5(C4)CN(C(=O)/C=C/CN(C)C)C5)c23)ccc1Oc1ccn2ncnc2c1 [Example 95, (E)-1-(6-(4-((4-([1,2,4]triazolo[1,5-a]pyridin-7-yloxy)-3-methylphenyl)amino)pyrrolo[2,1-f][1,2,4]triazin-5-yl)-2-azaspiro[3.3]heptan-2-yl)-4-(dimethylamino)but-2-en-1-one]	1500 to 5000	–	< 200	500 to 1500	200 to 500
C=CC(=O)N1CCC(c2ccn3ncnc(Nc4ccc(Oc5ccn6ncnc6c5)c(C)c4)c23)C1 (centres unmarked) [Example 11, 1-(3-(4-((4-([1,2,4]triazolo[1,5-a]pyridin-7-yloxy)-3-methylphenyl)amino)pyrrolo[2,1-f][1,2,4]triazin-5-yl)pyrrolidin-1-yl)prop-2-en-1-one]	1500 to 5000	–	< 200	< 200	< 200
Cc1cc(Nc2ncnn3ccc(C4CCN(C(=O)CCCN(C)C)CC4)c23)ccc1Oc1ccn2ncnc2c1 [Example 23, 1-(4-(4-((4-([1,2,4]triazolo[1,5-a]pyridin-7-yloxy)-3-methylphenyl)amino)pyrrolo[2,1-f][1,2,4]triazin-5-yl)piperidin-1-yl)-4-(dimethylamino)butan-1-one]	1500 to 5000	–	< 200	1500 to 5000	500 to 1500
Cc1cc(Nc2ncnn3ccc(C4CCCN(C(=O)/C=C/CN(C)C)C4)c23)ccc1Oc1ccn2ncnc2c1 (centres unmarked) [Example 96, (E)-1-(3-(4-((4-([1,2,4]triazolo[1,5-a]pyridin-7-yloxy)-3-methylphenyl)amino)-pyrrolo-[2,1-f][1,2,4]-triazin-5-yl)piperidin-1-yl)-4-(dimethylamino)but-2-en-1-one]	1500 to 5000	–	< 200	500 to 1500	< 200
C=CC(=O)NC1CCN(C(=O)c2ccn3ncnc(Nc4ccc(Oc5ccn6ncnc6c5)c(C)c4)c23)CC1 [Example 5, N-(1-(4-((4-([1,2,4]triazolo[1,5-a]pyridin-7-yloxy)-3-methylphenyl)amino)pyrrolo[2,1-f][1,2,4]triazine-5-carbonyl)piperidin-4-yl)acrylamide]	1500 to 5000	–	< 200	200 to 500	< 200
Cc1cc(Nc2ncnn3ccc(C(=O)NCCCN(C)C)c23)ccc1Oc1ccn2ncnc2c1 [Example 178, 4-((4-([1,2,4]triazolo[1,5-a]pyridin-7-yloxy)-3-methylphenyl)amino)-N-(3-(dimethylamino)-propyl)pyrrolo[2,1-f][1,2,4]triazine-5-carboxamide]	> 5000	–	< 200	1500 to 5000	200 to 500
Cc1cc(Nc2ncnn3ccc(C4CN(C(=O)/C=C/CN)C4)c23)ccc1Oc1ccn2ncnc2c1 [Example 87, (E)-1-(3-(4-((4-([1,2,4]triazolo[1,5-a]pyridin-7-yloxy)-3-methylphenyl)amino)pyrrolo[2,1-f][1,2,4]triazin-5-yl)azetidin-1-yl)-4-aminobut-2-en-1-one]	1500 to 5000	–	< 200	1500 to 5000	1500 to 5000

Continued, values first:

IC50 [1] [nM]	IC50 [2] [nM]	IC50 [3] [nM]	IC50 [4] [nM]	IC50 [5] [nM]	SMILES
1500 to 5000	–	< 200	< 200	< 200	Cc1cc(Nc2ncnn3ccc(N4CCN(C(=O)/C=C/CN(C)C)CC4)c23)ccc1Oc1ccn2ncnc2c1 [Example 22, (E)-1-(4-(4-((4-([1,2,4]triazolo[1,5-a]pyridin-7-yloxy)-3-methylphenyl)amino)pyrrolo[2,1-f][1,2,4]triazin-5-yl)piperazin-1-yl)-4-(dimethylamino)but-2-en-1-one]
1500 to 5000	–	< 200	1500 to 5000	200 to 500	Cc1cc(Nc2ncnn3ccc(N4CC5(CCN(C(=O)/C=C/CN(C)C)C5)C4)c23)ccc1Oc1ccn2ncnc2c1 [Example 156, (2E)-4-(dimethylamino)-1-(2-{4-[(3-methyl-4-{[1,2,4]triazolo[1,5-a]pyridin-7-yloxy}phenyl)amino]pyrrolo[2,1-f][1,2,4]triazin-5-yl}-2,6-diazaspiro[3.4]octan-6-yl)but-2-en-1-one]
–	< 200	< 200	–	–	C=CC(=O)N1CCC[C@@H](c2ccn3ncnc(Nc4ccc(Oc5ccn6ncnc6c5)c(C)c4)c23)CC1 (single isomer, unassigned) [Example 111]
–	< 200	< 200	–	–	Cc1cc(Nc2ncnn3ccc([C@@H]4CCCN(C(=O)/C=C/CN(C)C)CC4)c23)ccc1Oc1ccn2ncnc2c1 (single isomer, unassigned) [Example 109]
1500 to 5000	–	< 200	500 to 1500	200 to 500	C=C(F)C(=O)NC1CN(c2ccn3ncnc(Nc4ccc(Oc5ccn6ncnc6c5)c(C)c4)c23)C1 [Example 18, N-(1-(4-((4-([1,2,4]triazolo[1,5-a]pyridin-7-yloxy)-3-methylphenyl)amino)pyrrolo[2,1-f][1,2,4]triazin-5-yl)azetidin-3-yl)-2-fluoroacrylamide]
1500 to 5000	–	< 200	200 to 500	< 200	C=CC(=O)NCCn1cc(-c2ccn3ncnc(Nc4ccc(Oc5ccn6ncnc6c5)c(C)c4)c23)cn1 [Example 13, N-(2-(4-(4-((4-([1,2,4]triazolo[1,5-a]pyridin-7-yloxy)-3-methylphenyl)amino)pyrrolo[2,1-f][1,2,4]triazin-5-yl)-1H-pyrazol-1-yl)ethyl)acrylamide]
